Reference: patent publication US8703701B2 (Indiana University Research and Technology Corporation, priority 2009, dated 2014)
Starred links: 1 amine or outer side, 2 acyl side, 3 side chain; linkers in the order of their positions; H or OH if unused. Non-standard residues stand in square brackets, D forms with d. Residues, ends and D or L forms follow the SMILES beside them. Groups on a side chain read outwards from the residue. *: point of attachment. γGlu = O=C(O)[C@H](CCC(=O)[*:2])N[*:1]; Palmitoyl = CCCCCCCCCCCCCCCC(=O)*; Aib = CC(C)(N)C(=O)O

Key:
glucagon receptor = molecular target: T1, glucagon receptor (Homo sapiens, UniProt P47871); assay: cAMP induction, firefly luciferase reporter assay, glucagon receptor; type: cell-based; details: for Activity at Glucagon Receptor % Relative Activity: compared to native glucagon
T1 construct: expressed in transfected cells; host or cells: HEK293
T1 sequence (P47871 26-477): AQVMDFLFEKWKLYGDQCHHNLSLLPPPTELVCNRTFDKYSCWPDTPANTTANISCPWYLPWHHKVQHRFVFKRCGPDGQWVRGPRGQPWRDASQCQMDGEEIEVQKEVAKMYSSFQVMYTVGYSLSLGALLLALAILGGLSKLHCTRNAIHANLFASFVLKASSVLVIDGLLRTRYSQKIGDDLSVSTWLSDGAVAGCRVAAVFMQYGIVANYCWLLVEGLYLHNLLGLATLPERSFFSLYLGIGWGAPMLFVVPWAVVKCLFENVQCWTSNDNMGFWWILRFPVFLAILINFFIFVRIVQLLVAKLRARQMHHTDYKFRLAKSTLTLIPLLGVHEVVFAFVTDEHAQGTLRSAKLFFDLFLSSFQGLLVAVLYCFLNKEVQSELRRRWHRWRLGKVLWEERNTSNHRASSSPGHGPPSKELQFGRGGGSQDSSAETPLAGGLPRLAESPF
Description: (§1) The ability of each peptide to induce cAMP was measured in a firefly luciferase-based reporter assay.
(§2) At the end of the incubation, 100 μL of LucLite luminescence substrate reagent (Perkin Elmer, Wellesley, Mass.) were added to each well. The plate was shaken briefly, incubated 10 min in the dark and light output was measured on MicroBeta-1450 liquid scintillation counter (Perkin-Elmer, Wellesley, Mass.).

GLP-1 receptor = molecular target: T2, GLP-1 receptor (Homo sapiens, UniProt P43220); assay: cAMP induction, firefly luciferase reporter assay, GLP-1 receptor; type: cell-based; details: for Activity at GLP-1 Receptor % Relative Activity: compared to native GLP-1
T2 construct: expressed in transfected cells; host or cells: HEK293
T2 sequence (P43220 24-463): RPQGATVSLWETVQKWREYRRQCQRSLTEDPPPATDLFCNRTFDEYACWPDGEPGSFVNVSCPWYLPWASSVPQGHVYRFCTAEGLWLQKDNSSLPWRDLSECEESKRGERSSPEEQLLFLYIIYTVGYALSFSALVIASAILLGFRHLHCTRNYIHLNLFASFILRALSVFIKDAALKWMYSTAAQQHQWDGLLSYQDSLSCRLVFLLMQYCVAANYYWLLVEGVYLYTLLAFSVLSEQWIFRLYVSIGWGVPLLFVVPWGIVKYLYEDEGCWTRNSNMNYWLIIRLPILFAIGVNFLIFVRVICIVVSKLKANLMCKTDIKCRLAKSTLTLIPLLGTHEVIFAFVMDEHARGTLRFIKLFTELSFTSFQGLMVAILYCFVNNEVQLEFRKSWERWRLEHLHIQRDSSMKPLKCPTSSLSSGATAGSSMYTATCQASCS
Description: as §1, §2

[1] = Activity at GLP-1 Receptor EC50 [pM], Table 3A
[2] = Activity at GLP-1 Receptor EC50 [nM], Table 6

For `CCCCCCCCCCCCCCCC(=O)N[C@@H](CCC(=O)NCCCC[C@H](NC(=O)[C@H](CC(=O)O)NC(=O)[C@H](CO)NC(=O)[C@@H](NC(=O)[C@H](Cc1ccccc1)NC(=O)[C@@H](NC(=O)CNC(=O)[C@H](CCC(N)=O)NC(=O)[C@@H](CO)NC(=O)[C@@H](N)Cc1c[nH]cn1)[C@@H](C)O)[C@@H](C)O)C(=O)N[C@@H](CO)C(=O)N[C@@H](CCCCN)C(=O)N[C@@H](Cc1ccc(O)cc1)C(=O)N[C@@H](CC(C)C)C(=O)N[C@@H](CC(=O)O)C(=O)N[C@@H](CCC(=O)O)C(=O)N[C@@H](CCC(N)=O)C(=O)N[C@@H](C)C(=O)N[C@@H](C)C(=O)N[C@@H](CCCCN)C(=O)N[C@@H](CCC(=O)O)C(=O)N[C@@H](Cc1ccccc1)C(=O)N[C@H](C(=O)N[C@@H](CS)C(=O)N[C@@H](Cc1c[nH]c2ccccc12)C(=O)N[C@@H](CC(C)C)C(=O)N[C@@H](CC(C)C)C(=O)N[C@@H](CC(=O)O)C(=O)N[C@H](C(=O)O)[C@@H](C)O)[C@@H](C)CC)C(=O)O` [compound 76], the “Activity at Glucagon Receptor % Relative Activity” value (glucagon receptor; Table 3C) was 1500%, the EC50 (GLP-1 receptor; Activity at GLP-1 Receptor EC50 [nM], Table 3C) was 0.003 nM and the “Activity at GLP-1 Receptor % Relative Activity” value (GLP-1 receptor; Table 3C) was 1200%.

`CCCCCCCCCCCCCCCC(=O)N[C@@H](CCC(=O)N[C@@H](CCC(=O)NCCCC[C@H](NC(=O)[C@H](CC(=O)O)NC(=O)[C@H](CO)NC(=O)[C@@H](NC(=O)[C@H](Cc1ccccc1)NC(=O)[C@@H](NC(=O)CNC(=O)[C@H](CCC(=O)O)NC(=O)C(C)(C)NC(=O)[C@@H](N)Cc1c[nH]cn1)[C@@H](C)O)[C@@H](C)O)C(=O)N[C@@H](CO)C(=O)N[C@@H](CCCCN)C(=O)N[C@@H](Cc1ccc(O)cc1)C(=O)N[C@@H](CC(C)C)C(=O)N[C@@H](CC(=O)O)C(=O)NC(C)(C)C(=O)N[C@@H](CCCNC(=N)N)C(=O)N[C@@H](C)C(=O)N[C@@H](C)C(=O)N[C@@H](CCC(N)=O)C(=O)N[C@@H](CC(=O)O)C(=O)N[C@@H](Cc1ccccc1)C(=O)N[C@H](C(=O)N[C@@H](CCC(N)=O)C(=O)N[C@@H](Cc1c[nH]c2ccccc12)C(=O)N[C@@H](CC(C)C)C(=O)N[C@@H](CCSC)C(=O)N[C@@H](CC(=O)O)C(=O)N[C@H](C(N)=O)[C@@H](C)O)C(C)C)C(=O)O)C(=O)O` [compound 45] (H-H[Aib]EGTFTSDK([γGlu-γGlu-Palmitoyl])SKYLD[Aib]RAAQDFVQWLMDT-NH2; N-terminus assumed) was tested, and the “Activity at Glucagon Receptor % Relative Activity” value (glucagon receptor; Table 3A) was 75%, the EC50 (GLP-1 receptor; [1]) was 0.003 nM and the “Activity at GLP-1 Receptor % Relative Activity” value (GLP-1 receptor; Table 3A) was 759%.

In the case of `CSCC[C@H](NC(=O)[C@H](CC(C)C)NC(=O)[C@H](Cc1c[nH]c2ccccc12)NC(=O)[C@H](CCC(N)=O)NC(=O)[C@@H](NC(=O)[C@H](Cc1ccccc1)NC(=O)[C@H](CCC(=O)O)NC(=O)[C@H](CCCCN)NC(=O)[C@H](C)NC(=O)[C@H](CCCNC(=N)N)NC(=O)[C@H](CCCCN)NC(=O)[C@H](CCC(=O)O)NC(=O)[C@H](CC(=O)O)NC(=O)[C@H](CC(C)C)NC(=O)[C@H](Cc1ccc(O)cc1)NC(=O)[C@H](CCCCN)NC(=O)[C@H](CO)NC(=O)[C@H](Cc1ccc(O)cc1)NC(=O)[C@H](CC(=O)O)NC(=O)[C@H](CO)NC(=O)[C@@H](NC(=O)[C@H](Cc1ccccc1)NC(=O)[C@@H](NC(=O)CNC(=O)[C@H](CCC(N)=O)NC(=O)[C@@H](CO)NC(=O)[C@@H](N)Cc1c[nH]cn1)[C@@H](C)O)[C@@H](C)O)C(C)C)C(=O)N[C@@H](CC(N)=O)C(=O)N[C@H](C(N)=O)[C@@H](C)O` [compound 20], the EC50 (glucagon receptor; Activity at Glucagon Receptor EC50 (nM), Table 2A) is reported as 0.054 nM and the EC50 (GLP-1 receptor; Activity at GLP-1 Receptor EC50 (nM), Table 2A) is reported as 0.284 nM.

For `CCCCCCCCCCCCCCCC(=O)N[C@@H](CCC(=O)NCCCC[C@H](NC(=O)[C@H](CC(=O)O)NC(=O)[C@H](CO)NC(=O)[C@@H](NC(=O)[C@H](Cc1ccccc1)NC(=O)[C@@H](NC(=O)CNC(=O)[C@H](CCC(N)=O)NC(=O)C(C)(C)NC(=O)[C@@H](N)Cc1c[nH]cn1)[C@@H](C)O)[C@@H](C)O)C(=O)N[C@@H](CO)C(=O)N[C@@H](CCCCN)C(=O)N[C@@H](Cc1ccc(O)cc1)C(=O)N[C@@H](CC(C)C)C(=O)N[C@@H](CC(=O)O)C(=O)N[C@@H](CCC(=O)O)C(=O)N[C@@H](CCCNC(=N)N)C(=O)N[C@@H](C)C(=O)N[C@@H](C)C(=O)N[C@@H](CCC(N)=O)C(=O)N[C@@H](CC(=O)O)C(=O)N[C@@H](Cc1ccccc1)C(=O)N[C@H](C(=O)N[C@@H](CS)C(=O)N[C@@H](Cc1c[nH]c2ccccc12)C(=O)N[C@@H](CC(C)C)C(=O)N[C@@H](CC(C)C)C(=O)N[C@@H](CC(=O)O)C(=O)N[C@H](C(N)=O)[C@@H](C)O)C(C)C)C(=O)O` [compound 58], the “Activity at Glucagon Receptor % Relative Activity” value (glucagon receptor; Table 6) was 80%, the EC50 (GLP-1 receptor; [2]) was 0.068 nM and the “Activity at GLP-1 Receptor % Relative Activity” value (GLP-1 receptor; Table 6) was 125%.

With `CCCCCCCCCCCCCCCC(=O)N[C@@H](CCC(=O)NCCCC[C@H](NC(=O)[C@H](CC(=O)O)NC(=O)[C@H](CO)NC(=O)[C@@H](NC(=O)[C@H](Cc1ccccc1)NC(=O)[C@@H](NC(=O)CNC(=O)[C@H](CCC(N)=O)NC(=O)[C@@H](CO)NC(=O)[C@@H](N)Cc1c[nH]cn1)[C@@H](C)O)[C@@H](C)O)C(=O)N[C@@H](CO)C(=O)N[C@@H](CCCCN)C(=O)N[C@@H](Cc1ccc(O)cc1)C(=O)N[C@@H](CC(C)C)C(=O)N[C@@H](CC(=O)O)C(=O)N[C@@H](CCC(=O)O)C(=O)N[C@@H](CCCNC(=N)N)C(=O)N[C@@H](C)C(=O)N[C@@H](C)C(=O)N[C@@H](CCC(N)=O)C(=O)N[C@@H](CC(=O)O)C(=O)N[C@@H](Cc1ccccc1)C(=O)N[C@H](C(=O)N[C@@H](CCC(N)=O)C(=O)N[C@@H](Cc1c[nH]c2ccccc12)C(=O)N[C@@H](CC(C)C)C(=O)N[C@@H](CC(C)C)C(=O)N[C@@H](CC(=O)O)C(=O)N[C@H](C(N)=O)[C@@H](C)O)C(C)C)C(=O)O` [compound 51] the EC50 (glucagon receptor; Activity at Glucagon Receptor EC50 [nM], Table 6) was 0.004 nM, the EC50 (glucagon receptor; Activity at Glucagon Receptor EC50 [pM], Table 3A) was 0.0035 nM and the “Activity at Glucagon Receptor % Relative Activity” value (glucagon receptor; Table 3A) was 314%. The “Activity at Glucagon Receptor % Relative Activity” value (glucagon receptor; Table 6) was 314%, the EC50 (GLP-1 receptor; [2]) was 0.004 nM and the EC50 (GLP-1 receptor; [1]) was 0.0039 nM. For the same molecule, the “Activity at GLP-1 Receptor % Relative Activity” value (GLP-1 receptor; Table 3A) was 949% and the “Activity at GLP-1 Receptor % Relative Activity” value (GLP-1 receptor; Table 6) was 949%.

In the case of `CCCCCCCCCCCCCCCC(=O)N[C@@H](CCC(=O)NCCCC[C@H](NC(=O)[C@H](CC(=O)O)NC(=O)[C@H](CO)NC(=O)[C@@H](NC(=O)[C@H](Cc1ccccc1)NC(=O)[C@@H](NC(=O)CNC(=O)[C@H](CCC(N)=O)NC(=O)[C@@H](CO)NC(=O)[C@@H](N)Cc1c[nH]cn1)[C@@H](C)O)[C@@H](C)O)C(=O)N[C@@H](CO)C(=O)N[C@@H](CCCCN)C(=O)N[C@@H](Cc1ccc(O)cc1)C(=O)N[C@@H](CC(C)C)C(=O)N[C@@H](CC(=O)O)C(=O)N[C@@H](CCC(=O)O)C(=O)N[C@@H](CCC(N)=O)C(=O)N[C@@H](C)C(=O)N[C@@H](C)C(=O)N[C@@H](CCCCN)C(=O)N[C@@H](CCC(=O)O)C(=O)N[C@@H](Cc1ccccc1)C(=O)N[C@H](C(=O)N[C@@H](CS)C(=O)N[C@@H](Cc1c[nH]c2ccccc12)C(=O)N[C@@H](CC(C)C)C(=O)N[C@@H](CC(C)C)C(=O)N[C@@H](CC(=O)O)C(=O)N[C@H](C(=O)NCC(=O)O)[C@@H](C)O)[C@@H](C)CC)C(=O)O` [compound 55], the “Activity at Glucagon Receptor % Relative Activity” value (glucagon receptor; Table 5) is reported as 7% and the “Activity at GLP-1 Receptor % Relative Activity” value (GLP-1 receptor; Table 5) is reported as 16%.

For `CCCCCCCCCCCCCCCC(=O)N[C@@H](CCC(=O)NCCCC[C@H](NC(=O)[C@H](CC(=O)O)NC(=O)[C@H](CO)NC(=O)[C@@H](NC(=O)[C@H](Cc1ccccc1)NC(=O)[C@@H](NC(=O)CNC(=O)[C@H](CCC(N)=O)NC(=O)[C@@H](CO)NC(=O)[C@@H](N)Cc1c[nH]cn1)[C@@H](C)O)[C@@H](C)O)C(=O)N[C@@H](CO)C(=O)N[C@@H](CCCCN)C(=O)N[C@@H](Cc1ccc(O)cc1)C(=O)N[C@@H](CC(C)C)C(=O)N[C@@H](CC(=O)O)C(=O)N[C@@H](CCC(=O)O)C(=O)N[C@@H](CCC(N)=O)C(=O)N[C@@H](C)C(=O)N[C@@H](C)C(=O)N[C@@H](CCCCN)C(=O)N[C@@H](CCC(=O)O)C(=O)N[C@@H](Cc1ccccc1)C(=O)N[C@H](C(=O)N[C@@H](CS)C(=O)N[C@@H](Cc1c[nH]c2ccccc12)C(=O)N[C@@H](CC(C)C)C(=O)N[C@@H](CC(C)C)C(=O)N[C@@H](CC(=O)O)C(=O)N[C@H](C(=O)N[C@@H](CCC(=O)O)C(N)=O)[C@@H](C)O)[C@@H](C)CC)C(=O)O` [compound 83], the “Activity at Glucagon Receptor % Relative Activity” value (glucagon receptor; Table 3C) was 61% and the “Activity at GLP-1 Receptor % Relative Activity” value (GLP-1 receptor; Table 3C) was 288%.

`CSCC[C@H](NC(=O)[C@H](CC(C)C)NC(=O)[C@H](Cc1c[nH]c2ccccc12)NC(=O)[C@H](CCC(N)=O)NC(=O)[C@@H](NC(=O)[C@H](Cc1ccccc1)NC(=O)[C@H](CC(=O)O)NC(=O)[C@H](CCCCN)NC(=O)[C@H](C)NC(=O)[C@H](CCCNC(=N)N)NC(=O)[C@H](CCCNC(=N)N)NC(=O)[C@H](CCC(=O)O)NC(=O)[C@H](CC(=O)O)NC(=O)[C@H](CC(C)C)NC(=O)[C@H](Cc1ccc(O)cc1)NC(=O)[C@H](CCCCN)NC(=O)[C@H](CO)NC(=O)[C@H](Cc1ccc(O)cc1)NC(=O)[C@H](CC(=O)O)NC(=O)[C@H](CO)NC(=O)[C@@H](NC(=O)[C@H](Cc1ccccc1)NC(=O)[C@@H](NC(=O)CNC(=O)[C@H](CCC(N)=O)NC(=O)[C@H](CO)NC(=O)[C@@H](N)Cc1c[nH]cn1)[C@@H](C)O)[C@@H](C)O)C(C)C)C(=O)N[C@@H](CC(N)=O)C(=O)N[C@H](C(N)=O)[C@@H](C)O` [compound 67] was tested, and the “Activity at Glucagon Receptor % Relative Activity” value (glucagon receptor; Table 2B) was 93% and the “Activity at GLP-1 Receptor % Relative Activity” value (GLP-1 receptor; Table 2B) was 47%.
